# Test results reported in patent US20040009601A1, “Methods for the regeneration and transformation of cotton” (The Regents of the University of California, priority 2002, published 2004).
# Tested on: Maxxa hypocotyl explants
# Assay: Callus induction from Maxxa hypocotyl explants, orthogonal array L9 factorial experiment
# Assay type: cell-based, Gossypium hirsutum L. cv. Maxxa
# Details: for Σ RG1: regeneration potential, mean Y of factor 1: factor 1 = 0 mg l-1 of the hormone; for Σ RG2: regeneration potential, mean Y of factor 2: factor 2 = 2,4-D 0.05, NAA 1.0, kinetin 0.5 mg l-1; for Σ RG3: regeneration potential, mean Y of factor 3: factor 3 = 2,4-D 0.1, NAA 2.0, kinetin 1.0 mg l-1; for Σ RG: mean of Σ RG1, Σ RG2 and Σ RG3: per hormone over the three factor levels
# Experimental: Hypocotyl explants ˜5 mm in length were excised from 7-10 day-old seedlings under sterile conditions. Explants were placed in a 25×100-mm petri dish (one seedling per plate) containing ˜30 ml of callus induction medium, sealed with parafilm and cultured at 28±2° C. under a combination of cool white and full spectrum fluorescent lights with a 16-hour light/8-hour dark cycle for 3 to 4 weeks to induce callus formation.
# Initial experiments were conducted using MS2NK (2 mg 1^−1 NAA substituted for 2,4-D in MS2DK, Trolinder and Goodin, 1987), a medium used for callus induction in the elite regenerable Coker 312 line. To optimize a callus induction medium for Maxxa, a factorial experiment using an Orthogonal Array L9 (3^4) experimental design ((Taguchi, Introduction to Quality Engineering, Tokyo, Japan (1986)) was performed to determine the best hormonal regime for induction of callus capable of undergoing somatic embryogenesis. The optimal combination of NAA, 2,4-D and kinetin was evaluated at varying concentrations (Table 1) in basal MS medium (Murashige and Skoog, Physiol. Plant. 15:473-497 (1962)) in four independent experiments. In each experiment, 18 hypocotyl explants were excised from 24-48 individual seedlings to provide two explants per seedling per treatment. Each replicated treatment was evaluated for the ability to proliferate a friable callus that was yellowish-green to creamy in color, granular in texture, and readily dispersed in liquid medium. Calli characteristics were scored at 3 weeks and 6 weeks for color, texture, dispersiveness in liquid media, and cell/callus size as the parameters for evaluation. Based on these criteria, the optimized Maxxa callus induction medium (MCIM) selected for cotton regeneration is comprised of MS salts (GibcoBRL Cat no. 11117-074) supplemented with 100 mg 1^−1 myo-inositol, B5 vitamins (10 mg 1^−1 thiamine-HCl; 1 mg 1^−1 nicotinic acid; 1 mg 1^−1 pyridoxine), 0.75 g 1^−1 MgCl2, 30 g 1^−1 glucose, 2.0 mg 1^−1 NAA and 0.05 mg 1^−1 2,4-D. The medium was adjusted to pH 5.8 before adding agar (2.5 g 1^−1 Phytagel).
# A factorial experiment using an orthogonal array L9 (3^4) design was conducted to determine optimal conditions for callus induction and somatic embryogenesis by Maxxa hypocotyl explants. Different hormonal combinations of auxin (NAA and/or 2,4-D) and cytokinin (kinetin) were tested at varying concentrations (Table 1) in basal MS medium (Murashige and Skoog, supra). Each of the 9 replicated treatments was scored for callus initiation efficiency (Y) based on two components—(I) the mean of the number of explants producing good quality callus and (II) embryogenic potential, that is, the developmental transition of undifferentiated callus to somatic embryogenesis—expressed as a percent (Table 1). The production and proliferation of callus considered of “good quality” was based on four criteria: color, texture, dispersiveness in liquid media, and size/shape of undifferentiated cells. Within each category, each callus was scored with a rating of 1 to 4 based on the following parameters: Color—dark green (4) to parrot-green/creamy (1), Texture—hard and compact (4) to soft and friable (1), Dispersiveness—intact (4) to readily dispersed cell clumps (1) in liquid medium, Size/Shape—small cells/compact callus (<1 mm) (4) to nodular, “grainy” callus (>2 mm) (1). Good quality callus received ratings of “1” in each category. The embryogenic potential (II) of Y represents the ability of undifferentiated parenchymal cells to organize into meristematic centers and successfully undergo somatic embryogenesis. The factors considered in determining II/Y included the formation of organized cell clusters in embryogenic cultures, the types of embryos produced (globular, heart-shaped, torpedo), and the color of the somatic embryo (white/transparent vs. yellow/opaque). […]
Structure (SMILES),"Importance of the hormone for callus induction from Maxxa hypocotyls, judged from Σ RG","Σ RG1: regeneration potential, mean Y of factor 1 [%]","Σ RG2: regeneration potential, mean Y of factor 2 [%]","Σ RG3: regeneration potential, mean Y of factor 3 [%]","Σ RG: mean of Σ RG1, Σ RG2 and Σ RG3 [%]"
"O=C(O)COc1ccc(Cl)cc1Cl [2,4-D, 2,4-dichlorophenoxyacetic acid]",essential for callus induction,5.77,61.87,77.07,71.30
"c1coc(CNc2ncnc3[nH]cnc23)c1 [Kinetin, kinetin]",not critical,63.27,32.78,46.65,32.49
